Reference: patent publication US20260048036A1, “CRYSTALLINE FORMS OF A GLUCOSYLCERAMIDE SYNTHASE INHIBITOR AND USES THEREOF” (ACELINK THERAPEUTICS, INC., priority 2022, published 2026)
Converted amounts (≈) assume the structure as drawn. “And” between values parts separate entries of the source, which are not always exact repeats. Equal values may be shown once. Read-outs that look alike come from different tables or passages of the source.

Assays:
[1] = target: T1, Glucosylceramide synthase (GCS) (Rattus norvegicus, UniProt Q9R0E0); assay: GCS enzymatic assay with L6 cell lysate; format: biochemical; conditions: 0.1 μM, N = 1, N = 2
T1 construct: The MDCK, K-562, and L6 cell lines all endogenously express GCS enzyme; host or cells: L6 rat skeletal muscle cell lysate
T1 sequence (Q9R0E0 1-394): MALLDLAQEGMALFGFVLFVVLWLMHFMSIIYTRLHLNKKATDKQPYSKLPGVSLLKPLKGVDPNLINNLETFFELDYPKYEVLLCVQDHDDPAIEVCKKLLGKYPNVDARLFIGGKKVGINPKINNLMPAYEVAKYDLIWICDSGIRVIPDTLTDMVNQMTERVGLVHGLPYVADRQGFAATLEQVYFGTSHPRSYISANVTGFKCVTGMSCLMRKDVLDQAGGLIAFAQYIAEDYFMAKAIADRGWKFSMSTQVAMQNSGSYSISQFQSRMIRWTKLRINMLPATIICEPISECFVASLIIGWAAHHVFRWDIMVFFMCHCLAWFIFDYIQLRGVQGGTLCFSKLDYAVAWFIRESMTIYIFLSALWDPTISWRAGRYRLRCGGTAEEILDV
Excerpt: In this study, the inventors developed a reliable method to monitor GCS catalytic activity using the fluorescent substrate, C6-NBD-ceramide. The reaction product, C6-NBD-glucosylceramide, could then be detected and quantified by LC-MS/MS. The inventors used this method to test and validate the effect of various GCS inhibitors on GCS enzyme activity from different species.
The MDCK, K-562, and L6 cell lines all endogenously express GCS enzyme and were used to test the effect of various GCS inhibitors on enzyme originating from different species. The GCS enzyme activity was detected by using the fluorescent substrate, C6-NBD-ceramide, and monitoring the formation of the fluorescent reaction product, C6-NBD-glucosylceramide. First, the inventors used cell lysate derived from a canine kidney cell line (MDCK, ATCC Cat #CCL-34™) as the source of GCS and tested the inhibitory activity of several control and test compounds. The inventors then used the human leukemia K-562 cell line (ATCC Cat #[…]) to test the effect of these GCS inhibitors on intact living cells. Finally, a cell lysate derived from a rat skeletal muscle cell line, L6 (ATCC Cat #[…]), was used to test the effect of these GCS inhibitors on rodent GCS enzyme.
GCS activity was evaluated using a GCS enzyme assay derived from MDCK or L6 cell lysates.
MDCK or L6 cell lysates were prepared using M-PER in the presence of a protease inhibitor cocktail. Each 100 mm dish (100% confluent) was lysed with 250 μl of M-PER containing protease inhibitors. Protein concentration was determined using Pierce BCA protein assay kit.
Sixty micrograms of MDCK lysate was incubated with various concentrations of compounds (0.00001 μM-1 μM) in 100 mM Tris buffer (pH 7.5) containing 10 mM MgCl2, 1 mM dithiothreitol, 1 mM EGTA, 2 mM NAD, 100 μM UDP-glucose, 10 μM C6-NBD-ceramide with 35 μM dioleoylphosphatidylcholine/5 μM sulfatide in a final reaction volume of 100 μl at 37° C. for 1 hour. The final concentration of DMSO was 0.1% in both compound treated and DMSO only treated samples. Each individual reaction was terminated with 11 volumes of methanol:acetonitrile (6:5; containing 200 ng/ml Tolbutamide as internal control). After sufficient mixing, reactions were centrifuged at 2000 rpm for 10 mins, supernatant was injected into the LC-MS/MS for analysis.
For the assay with L6 cell lysate, different amounts of L6 cell lysate were used.
The quantitative analysis of C6-NBD-glucosylceramide was performed on a Shimadzu ultra-fast liquid chromatography coupled with API 4000 mass spectrometer. Analyst 1.5 software packages were used to control the LC-MS/MS system, as well as for data acquisition and processing.
The C6-NBD-glucosylceramide reading was normalized first by dividing the peak area of C6-NBD-glucosylceramide with the peak area of the internal standard, and then the amount was calculated according to the standard curve generated in the same assay run. For the cell based assay results, the amount of C6-NBD-glucosylceramide was also normalized by the protein concentration of the cell samples.
To confirm the inhibitory activity of test compounds on GCS from different species, cells from rat were used. First, the presence of GCS activity was verified using various amounts of L6 cell lysate (FIG. 34, Table 26).

[2] = Competitive equilibration experiment (Form A + D + E slurry); format: physicochemical; conditions: ethanol, acetone, acetonitrile at 5° C., 25° C. and 50° C., 3 days, XRPD
Protocol: Competitive slurry was conducted to determine thermodynamic relationships of Crystalline Form A, Crystalline Form D and Crystalline Form E of Compound 1. […] The mixtures were stirred at 5° C., 25° C. or 50° C. for 3 days. Obtained solid part (wet cake) was investigated by XRPD.

[3] = Hygroscopicity by DVS at 25° C.; format: physicochemical
[4] = Approximate solubility at 25° C. by visual observation; format: physicochemical; conditions: thermodynamic from solid
Protocol: Free form Crystalline Form A of Compound 1 was used as the starting material for salt screening and selection study. […] Max. volume of each solvent added was 1 mL.

For O=C(N[C@H](CN1CCCC1)[C@H](O)c1ccc(OC2CC2)c(Cl)c1)/C(=N/O)c1ccc2cc(Cl)ccc2c1 [Crystalline Form A of Compound 1], the “C6-NBD-Ceramide (Normalized to internal control)” value ([1]; 30 μg L6 lysate/reaction) was 6.69 and 6.31, the “C6-NBD-Glucosylceramide Concentration” value ([1]; 30 μg L6 lysate/reaction) was 9.73 nM and 10.5 nM and the Inhibition ([1]; 30 μg L6 lysate/reaction) was 98.57% and 98.45%. For the same molecule, the inhibition at 0.1 µM ([1]; 30 μg L6 lysate/reaction) was > 98%, the “C6-NBD-Ceramide (Normalized to internal control)” value ([1]; 60 μg L6 lysate/reaction) was 5.87 and 6.17 and the “C6-NBD-Glucosylceramide Concentration” value ([1]; 60 μg L6 lysate/reaction) was 22.5 nM and 26.3 nM. For the same molecule, the Inhibition ([1]; 60 μg L6 lysate/reaction) was 97.64%, the inhibition at 0.1 µM ([1]; 60 μg L6 lysate/reaction) was 98% and the “C6-NBD-Ceramide (Normalized to internal control)” value ([1]; 120 μg L6 lysate/reaction) was 6.09 and 6.11. For the same molecule, the “C6-NBD-Glucosylceramide Concentration” value ([1]; 120 μg L6 lysate/reaction) was 45.8 nM and 44.7 nM, the Inhibition ([1]; 120 μg L6 lysate/reaction) was 96.74% and the inhibition at 0.1 µM ([1]; 120 μg L6 lysate/reaction) was 96.7%. For the same molecule, the “C6-NBD-Ceramide (Normalized to internal control)” value ([1]; 180 μg L6 lysate/reaction) was 5.15 and 5.12, the “C6-NBD-Glucosylceramide Concentration” value ([1]; 180 μg L6 lysate/reaction) was 54.7 nM and 59.0 nM and the Inhibition ([1]; 180 μg L6 lysate/reaction) was 95.55%. The inhibition at 0.1 µM ([1]; 180 μg L6 lysate/reaction) was 95.9%, the “C6-NBD-Ceramide (Normalized to internal control)” value ([1]; 240 μg L6 lysate/reaction) was 5.72 and 5.61 and the “C6-NBD-Glucosylceramide Concentration” value ([1]; 240 μg L6 lysate/reaction) was 76.9 nM and 78.2 nM. The Inhibition ([1]; 240 μg L6 lysate/reaction) was 93.51%, the inhibition at 0.1 µM ([1]; 240 μg L6 lysate/reaction) was 93.6% and the “thermodynamic stability in competitive slurry” value [2] was “the most stable form”. The “XRPD after DVS test” value [3] was “No form change”, the “hygroscopicity (DVS)” value [3] was “slightly hygroscopic” and the “Desorp. (DVS)” value ([3]; 0% RH) was 0.02%. The “Sorp. (water uptake by DVS)” value ([3]; 0% RH) was 0.02%, the “Desorp. (DVS)” value ([3]; 10% RH) was 0.04% and the “Sorp. (water uptake by DVS)” value ([3]; 10% RH) was 0.03%. For the same molecule, the “Desorp. (DVS)” value ([3]; 20% RH) was 0.05%, the “Sorp. (water uptake by DVS)” value ([3]; 20% RH) was 0.04% and the “Desorp. (DVS)” value ([3]; 30% RH) was 0.06%. The “Sorp. (water uptake by DVS)” value ([3]; 30% RH) was 0.05%, the “Desorp. (DVS)” value ([3]; 40% RH) was 0.09% and the “Sorp. (water uptake by DVS)” value ([3]; 40% RH) was 0.06%. The “Sorp. (water uptake by DVS)” value ([3]; 50% RH) was 0.09%, the “Sorp. (water uptake by DVS)” value ([3]; 60% RH) was 0.12% and the “Sorp. (water uptake by DVS)” value ([3]; 70% RH) was 0.14%. For the same molecule, the “Sorp. (water uptake by DVS)” value ([3]; 80% RH) was 0.22%, the “Sorp. (water uptake by DVS)” value ([3]; 90% RH) was 0.39% and the “water uptake increased from 40% RH to 90% RH” value ([3]; DVS) was “about 0.33%”. For the same molecule, the “XRPD after DVS test” value ([3]; listed as Free form Crystalline Form A of Compound 1) was “No form change”, the “XRPD after DVS test” value ([3]; listed as free form Crystalline Form A of Compound 1) was “no form change” and the solubility ([4]; organic solvent or mixture, Acetone) was 16700 to 25000 µg/mL (≈ 30.8 to 46.1 mM). For the same molecule, the solubility ([4]; organic solvent or mixture, Acetonitrile) was < 5000 µg/mL, the solubility ([4]; organic solvent or mixture, Ethanol) was 5000 to 5500 µg/mL (≈ 9.22 to 10.1 mM) and the solubility ([4]; organic solvent or mixture, Ethyl acetate) was < 5000 µg/mL. For the same molecule, the solubility ([4]; Water) was < 5000 µg/mL.
